According to patent US20200131196A1 (Mount Tam Therapeutics, Inc., priority 2017, published 2020):
Several values for one entry are separate records, joined by “and”; a condition that tells them apart may be missing. Identical values can stand only once. Like-named read-outs stand apart in the source and are kept apart here.

Tests used:
[1] = Whole blood concentrations in mice after IP dosing (LC-MS/MS); type: in vivo, mouse; conditions: for Formula II Concentrations in Mouse Whole Blood, individual animals / Formula II Concentrations in Mouse Whole Blood, Mean: 10 mg/kg IP QD × 3 days; for Formula II Concentrations in Mouse Whole Blood, individual animals: animals 10, 11, 12; for approximate mean concentration in whole blood: up to six hours following administration
Protocol: Shown below are whole blood concentrations following administration of the compound of Formula II to mice. The compound of Formula II was administered to mice at 2 mg/kg or 10 mg/kg and the concentration of the compound in whole blood determined. These determinations were made using protein precipitation, liquid chromatography (LC), and mass spectrometry (MS/MS). Ten μl aliquots of whole blood and matrix calibration standards were distributed in a 96-well plate; 10 μl aliquots of blank matrix for matrix blanks and control blanks were included as controls. Ten μl of water was added to each sample followed by vortexing. One hundred sixty […] of internal standard was added to each sample except the matrix blanks; 160 μl 70:30 water:acetonitrile (ACN) was added to matrix blanks. This was followed by a […]. One hundred fifty μl of the resultant supernatant was then transferred to a new 96-well plate and the samples blown to dryness at 35° C. The resultant product was then reconstituted with 90 μl ACN.

[2] = Pharmacokinetics in male Sprague Dawley rats (intravenous and oral); type: in vivo, rat; conditions: for bioavailability: male, Sprague Dawley, po, 10 mg/kg; for AUC: read-out: AUC 0-infinity_observed
Protocol: Table 6 provides the pharmacokinetic parameters of Example (I) in male Sprague Dawley rats after a single bolus intravenous dose of 2 mg/kg. Table 7 provides the pharmacokinetic parameters of Example I in male Sprague Dawley rats after a single bolus oral dose of 10 mg/kg. In order to measure bioavailability in vivo, a compound may be administered to a test animal (e.g. mouse or rat) both intraperitoneally (i.p.) or intravenously (i.v.) and orally (p.o.) and blood samples are taken at regular intervals to examine how the plasma concentration of the drug varies over time. The time course of plasma concentration over time can be used to calculate the absolute bioavailability of the compound as a percentage using standard models. An example of a typical protocol is described below. […] The time-course of plasma or whole blood concentrations can then be used to derive key parameters such as the area under the plasma or blood concentration-time curve (AUC-which is directly proportional to the total amount of unchanged drug that reaches the systemic circulation), the maximum (peak) plasma or blood drug concentration, the time at which maximum plasma or blood drug concentration occurs (peak time), additional factors which are used in the accurate determination of bioavailability include: the compound's terminal half-life, total body clearance, steady-state volume of distribution and F %. These parameters are then analyzed by non-compartmental or compartmental methods to give a calculated percentage bioavailability, for an example of this type of method see Gallant-[…] et al, 2000 and […] et al, 1998, and references therein.

[3] = male Sprague Dawley rats, single bolus intravenous dose of 2 mg/kg
[4] = male Sprague Dawley rats, single bolus oral dose of 10 mg/kg
[5] = rat, blood, male Sprague Dawley rats, single bolus intravenous dose of 2 mg/kg
[6] = rat, blood, male Sprague Dawley rats, single bolus oral dose of 10 mg/kg

With CO[C@H]1C[C@@H]2CC[C@@H](C)[C@@](O)(O2)C(=O)C(=O)N2CCCC[C@H]2C(=O)O[C@H]([C@H](C)C[C@H]2C[C@H]3C[C@@H]2C[C@@H]3O)CC(=O)[C@H](C)/C=C(\C)[C@@H](O)[C@@H](OC)C(=O)[C@H](C)C[C@H](C)/C=C/C=C/C=C/1C [Formula II, C37-[(1R,2S,4R,5S)-5-hyhroxybicyclo[2.2.1]heptane] rapamycin] the “Formula II Concentrations in Mouse Whole Blood, individual animals” value (from here on “Formula II Concentrations … individual animals”) ([1]; Day 2, 24.0 hrs) was 123 ng/mL and 336 ng/mL and 78.0 ng/mL, the “Formula II Concentrations in Mouse Whole Blood, Mean” value (“Formula II Concentrations … Mean” for short) ([1]; Day 3, 1.00 hrs) was 2204 ng/mL and the “Formula II Concentrations … individual animals” value ([1]; Day 3, 1.00 hrs) was “AQL and 3420 ng/mL and 987 ng/mL”. For the same compound, the “Formula II Concentrations … Mean” value ([1]; Day 3, 2.00 hrs) was 3199 ng/mL, the “Formula II Concentrations … individual animals” value ([1]; Day 3, 2.00 hrs) was 5170 ng/mL and 3650 ng/mL and 777 ng/mL and the “Formula II Concentrations … Mean” value ([1]; Day 3, 6.00 hrs) was 2317 ng/mL. The “Formula II Concentrations … individual animals” value ([1]; Day 3, 6.00 hrs) was 3330 ng/mL and 2890 ng/mL and 730 ng/mL, the “Formula II Concentrations … Mean” value ([1]; Day 3, 24.0 hrs) was 223 ng/mL and the “Formula II Concentrations … individual animals” value ([1]; Day 3, 24.0 hrs) was 223 ng/mL and 323 ng/mL and 124 ng/mL. The “approximate mean concentration in whole blood” value ([1]; about 2 mg/kg) was 383 to 651 ng/mL, the “approximate mean concentration in whole blood” value ([1]; about 10 mg/kg) was 657 to 3323 ng/mL and the concentration at 24 h ([1]; mouse, whole blood, intraperitoneal, 2 mg/kg, 2 mg/kg IP QD × 3 days, Day 1, 24.0 hrs, animals 7, 8, 9, read-out: Formula II Concentrations in Mouse Whole Blood, individual animals) was 12.2 ng/mL. The concentration at 24 h ([1]; mouse, whole blood, intraperitoneal, 2 mg/kg, 2 mg/kg IP QD × 3 days, Day 1, 24.0 hrs, read-out: Formula II Concentrations in Mouse Whole Blood, Mean) was 15.1 ng/mL, the concentration at 1 h ([1]; mouse, whole blood, intraperitoneal, 2 mg/kg, 2 mg/kg IP QD × 3 days, Day 2, 1.00 hrs, read-out: Formula II Concentrations in Mouse Whole Blood, Mean) was 404 ng/mL and the concentration at 2 h ([1]; mouse, whole blood, intraperitoneal, 2 mg/kg, 2 mg/kg IP QD × 3 days, Day 2, 2.00 hrs, read-out: Formula II Concentrations in Mouse Whole Blood, Mean) was 435 ng/mL. The concentration at 6 h ([1]; mouse, whole blood, intraperitoneal, 2 mg/kg, 2 mg/kg IP QD × 3 days, Day 2, 6.00 hrs, animals 7, 8, 9, read-out: Formula II Concentrations in Mouse Whole Blood, individual animals) was 553 ng/mL, the concentration at 6 h ([1]; mouse, whole blood, intraperitoneal, 2 mg/kg, 2 mg/kg IP QD × 3 days, Day 2, 6.00 hrs, read-out: Formula II Concentrations in Mouse Whole Blood, Mean) was 579 ng/mL and the concentration at 24 h ([1]; mouse, whole blood, intraperitoneal, 2 mg/kg, 2 mg/kg IP QD × 3 days, Day 2, 24.0 hrs, read-out: Formula II Concentrations in Mouse Whole Blood, Mean) was 43.7 ng/mL. The concentration at 1 h ([1]; mouse, whole blood, intraperitoneal, 2 mg/kg, 2 mg/kg IP QD × 3 days, Day 3, 1.00 hrs, animals 7, 8, 9, read-out: Formula II Concentrations in Mouse Whole Blood, individual animals) was 628 ng/mL, the concentration at 24 h ([1]; mouse, whole blood, intraperitoneal, 2 mg/kg, about 2 mg/kg, at about 24 hours following administration, read-out: approximate mean concentration in whole blood) was 15 to 43.7 ng/mL and the concentration at 24 h ([1]; mouse, whole blood, intraperitoneal, 10 mg/kg, about 10 mg/kg, at about 24 hours following administration, read-out: approximate mean concentration in whole blood) was 21 to 138 ng/mL. The “AUMC 0-inf_observed” value [2, 3] was 2358 ng/ml*h^2, the Cl_obs [2, 3] was 0.0026 (mg/kg)/(ng/ml)/h and the Lambda_z [2, 3] was 0.270 h⁻¹. For the same compound, the Vss_obs [2, 3] was 0.00797 (mg/kg)/(ng/ml), the Vz_obs [2, 3] was 0.00963 (mg/kg)/(ng/ml) and the “AUMC 0-inf_obs” value [2, 4] was 13410 ng/ml*h^2. The Cl/F_obs [2, 4] was 0.0055 (mg/kg)/(ng/ml)/h, the Lambda_z [2, 4] was 0.127 h⁻¹ and the Tlag [2, 4] was 0 h. The Vz/F_obs [2, 4] was 0.0433 (mg/kg)/(ng/ml), the bioavailability ([2]; rat, blood, male Sprague Dawley rats, single bolus oral dose of 10 mg/kg, read-out: % F) was 47% and the bioavailability ([2]; rat, blood, read-out: oral bioavailability) was about 47%. It also gave an AUC(0-t) [2, 5] of 694 ng·h/mL, a C0 [2, 5] of 1560 ng/mL and a half-life [2, 5] of 154 min. It also gave an AUC [2, 5] of 769 ng·h/mL, a Cmax ([2]; rat, blood, male Sprague Dawley rats, single bolus intravenous dose of 2 mg/kg, read-out: Cmax (maximum blood concentration)) of 912 ng/mL and an MRT ([2]; rat, blood, male Sprague Dawley rats, single bolus intravenous dose of 2 mg/kg, read-out: MRT 0-infinity_observed) of 3.06 h. It also gave a Tmax ([2]; rat, blood, male Sprague Dawley rats, single bolus intravenous dose of 2 mg/kg, read-out: Tmax (time maximum blood conc.)) of 0.0333 h, an AUC(0-t) [2, 6] of 1720 ng·h/mL and a half-life [2, 6] of 328 min. For the same compound, the AUC [2, 6] was 1820 ng·h/mL, the Cmax ([2]; rat, blood, male Sprague Dawley rats, single bolus oral dose of 10 mg/kg, read-out: Cmax) was 206 ng/mL and the MRT inf ([2]; rat, blood, male Sprague Dawley rats, single bolus oral dose of 10 mg/kg, read-out: MRT 0-inf_obs) was 7.37 h. For the same compound, the Tmax ([2]; rat, blood, male Sprague Dawley rats, single bolus oral dose of 10 mg/kg, read-out: Tmax) was 2 h.
